The values that follow come from ChEMBL document CHEMBL4118149, “1,2,4-Triazolsulfone: A novel isosteric replacement of acylsulfonamides in the context of NaV1.7 inhibition” (Bioorg Med Chem Lett, 2018).

A short description of data set [1]: Dissociation constant, pKa of the compound by capillary electrophoresis method. It counts as physicochemical.
A short description of data set [2]: Volume of distribution at steady state in Sprague-Dawley rat at 0.5 mg/kg, iv. The class given is ADME, organism-based. Particulars: in vivo, read-out: Vdss.
Data set [3] is described as follows: Kinetic solubility of the compound in simulated intestinal fluid. The class given is physicochemical. The settings on record: simulated gi fluid.
Data set [4] in a line: Oral bioavailability in Sprague-Dawley rat at 10 mg/kg. It counts as ADME, organism-based. The settings on record: in vivo.

For `CC(=O)NS(=O)(=O)c1cc(F)c(COc2ccc(Cl)c(Cl)c2)cc1F`, the pKa in data set [1] is 3.7.

As for `CC(C)COc1ncc(-c2cc(F)c(-c3nnc(S(=O)(=O)C4CCC4)[nH]3)cc2F)cc1Cl`, the Vd in data set [2] came to 0.7 L/kg. For the molecule `O=S(=O)(CC1CC1)c1nnc(-c2cc(F)c(-c3cnc(Oc4ccccc4C(F)(F)F)c(Cl)c3)cc2F)[nH]1`, in data set [2], the Vd stood at 0.37 L/kg. For the same molecule, in data set [3], the Kinetic solubility was 101 µM. Moreover, in data set [4], the bioavailability worked out at 140%. Molecule `O=C(O)c1cc(F)c(COc2ccc(Cl)c(Cl)c2)cc1F` displayed a pKa in data set [1] of 3.1. In the case of `O=c1[nH]c(-c2cc(F)c(COc3ccc(Cl)c(Cl)c3)cc2F)no1`, the pKa in data set [1] is 4.3. The same measure, in the same setting: the result for `CS(=O)(=O)NC(=O)c1cc(F)c(COc2ccc(Cl)c(Cl)c2)cc1F` reads 3.1; that for `CS(=O)(=O)c1nnc(-c2cc(F)c(COc3ccc(Cl)c(Cl)c3)cc2F)[nH]1`, 4.8; that for `O=C(O)CNC(=O)c1cc(F)c(COc2ccc(Cl)c(Cl)c2)cc1F`, 3.4.
